Source: ChEMBL document CHEMBL1649581, “Evaluation of target specificity of antibacterial agents using Staphylococcus aureus ddlA mutants and D-cycloserine in a silkworm infection model” (2009)
In brackets after ≈: the same amount, converted by molar mass.

Experiments:
Format in all cases: functional
Staphylococcus aureus [1] = test: Antibacterial activity against Staphylococcus aureus TS2921 harboring ddlA Asp102Asn mutation in presence of 100 mM D-Ala-D-Ala, which complements temperature sensitivity after 20 hrs; conditions: TS2921, 20 h
Staphylococcus aureus [2] = test: Antibacterial activity against Staphylococcus aureus TS2921 harboring ddlA Asp102Asn mutation after 20 hrs; conditions: TS2921, 20 h
Staphylococcus aureus [3] = test: Antibacterial activity against Staphylococcus aureus TS2921 harboring ddlA Asp102Asn mutation in fifth-instar silkworm larva infection model assessed as compound concentration per gram of larva […] after 48 hrs post dose at 27 degC
Staphylococcus aureus [4] = test: Antibacterial activity against Staphylococcus aureus TS10007 harboring ddlA Asp39Asn mutation after 20 hrs; conditions: TS10007, 20 h
Staphylococcus aureus [5] = test: Antibacterial activity against Staphylococcus aureus TS5337 harboring ddlA Pro178Ser mutation after 20 hrs; conditions: TS5337, 20 h
Staphylococcus aureus [6] = test: Antibacterial activity against Staphylococcus aureus RN4220 in fifth-instar silkworm larva infection model assessed as compound concentration per gram of larva […] after 48 hrs post dose at 27 degC
Staphylococcus aureus [7] = test: Antibacterial activity against Staphylococcus aureus RN4220 after 20 hrs; conditions: RN4220, 20 h
Staphylococcus aureus [8] = test: Antibacterial activity against Staphylococcus aureus TS10007 harboring ddlA Asp39Asn mutation in fifth-instar silkworm larva infection model assessed as compound concentration per gram of larva […] after 48 hrs post dose at 27 degC
Staphylococcus aureus [9] = test: Antibacterial activity against Staphylococcus aureus TS2921 harboring ddlA Asp102Asn mutation and coexpressing pSddlA which complements temperature sensitivity after 20 hrs; conditions: TS2921, 20 h
Staphylococcus aureus [10] = test: Antibacterial activity against Staphylococcus aureus TS5337 harboring ddlA Pro178Ser mutation in fifth-instar silkworm larva infection model assessed as compound concentration per gram of larva […] after 48 hrs post dose at 27 degC

`O=C(N[C@H](CO)[C@H](O)c1ccc([N+](=O)[O-])cc1)C(Cl)Cl` [CHLORAMPHENICOL] was tested, and the MIC (Staphylococcus aureus [1]) was 3.1 µg/mL, the MIC (Staphylococcus aureus [2]) was 3.1 µg/mL (≈ 9.59 µM) and the ED50 (Staphylococcus aureus [3]) was 5.3 µg. It also gave an MIC (Staphylococcus aureus [4]) of 3.1 µg/mL (≈ 9.59 µM), an MIC (Staphylococcus aureus [5]) of 3.1 µg/mL (≈ 9.59 µM) and an ED50 (Staphylococcus aureus [6]) of 4.9 µg. For the same compound, the MIC (Staphylococcus aureus [7]) was 6.3 µg/mL (≈ 19.5 µM).
Compound `N[C@@H]1CONC1=O` [CYCLOSERINE] has an MIC (Staphylococcus aureus [1]) of 50 µg/mL, an MIC (Staphylococcus aureus [2]) of 12.5 µg/mL (≈ 122 µM) and an ED50 (Staphylococcus aureus [3]) of less than 2.2 µg. The ED50 (Staphylococcus aureus [8]) was less than 2.2 µg, the MIC (Staphylococcus aureus [4]) was 50 µg/mL (≈ 490 µM) and the MIC (Staphylococcus aureus [5]) was 25 µg/mL (≈ 245 µM). It also gave an ED50 (Staphylococcus aureus [6]) of 40 µg, an MIC (Staphylococcus aureus [9]) greater than 100 µg/mL and an MIC (Staphylococcus aureus [7]) of 100 µg/mL (≈ 979 µM). It also gave an ED50 (Staphylococcus aureus [10]) of 5.4 µg.
`CO[C@@]1(NC(=O)CSC(F)F)C(=O)N2C(C(=O)O)=C(CSc3nnnn3CCO)CO[C@@H]21` [FLOMOXEF] showed an MIC (Staphylococcus aureus [1]) of 0.4 µg/mL, an MIC (Staphylococcus aureus [2]) of 0.2 µg/mL (≈ 0.403 µM) and an ED50 (Staphylococcus aureus [3]) of 0.031 µg. For the same compound, the ED50 (Staphylococcus aureus [8]) was 0.048 µg, the MIC (Staphylococcus aureus [4]) was 0.4 µg/mL (≈ 0.806 µM) and the MIC (Staphylococcus aureus [5]) was 0.2 µg/mL (≈ 0.403 µM). The ED50 (Staphylococcus aureus [6]) was 0.054 µg, the MIC (Staphylococcus aureus [9]) was 0.4 µg/mL (≈ 0.806 µM) and the MIC (Staphylococcus aureus [7]) was 0.4 µg/mL (≈ 0.806 µM). It also gave an ED50 (Staphylococcus aureus [10]) of 0.031 µg.
Work on `CCn1cc(C(=O)O)c(=O)c2cc(F)c(N3CCNCC3)cc21` [NORFLOXACIN] yielded an MIC (Staphylococcus aureus [1]) of 0.63 µg/mL, an MIC (Staphylococcus aureus [2]) of 0.63 µg/mL (≈ 1.97 µM) and an MIC (Staphylococcus aureus [4]) of 0.63 µg/mL (≈ 1.97 µM). It also gave an MIC (Staphylococcus aureus [5]) of 0.63 µg/mL (≈ 1.97 µM), an MIC (Staphylococcus aureus [9]) of 0.63 µg/mL (≈ 1.97 µM) and an MIC (Staphylococcus aureus [7]) of 0.63 µg/mL (≈ 1.97 µM).
`CN(C)[C@@H]1C(O)=C(C(N)=O)C(=O)[C@@]2(O)C(O)=C3C(=O)c4c(O)cccc4[C@@](C)(O)[C@H]3C[C@@H]12` [TETRACYCLINE] was tested, and the MIC (Staphylococcus aureus [1]) was 0.031 µg/mL, the MIC (Staphylococcus aureus [2]) was 0.063 µg/mL (≈ 0.142 µM) and the ED50 (Staphylococcus aureus [3]) was 0.7 µg. For the same compound, the ED50 (Staphylococcus aureus [8]) was 0.35 µg, the MIC (Staphylococcus aureus [4]) was 0.063 µg/mL (≈ 0.142 µM) and the MIC (Staphylococcus aureus [5]) was 0.063 µg/mL (≈ 0.142 µM). For the same compound, the ED50 (Staphylococcus aureus [6]) was 0.68 µg, the MIC (Staphylococcus aureus [9]) was 0.063 µg/mL (≈ 0.142 µM) and the MIC (Staphylococcus aureus [7]) was 0.063 µg/mL (≈ 0.142 µM). For the same compound, the ED50 (Staphylococcus aureus [10]) was 0.75 µg.
`CN[C@H](CC(C)C)C(=O)N[C@H]1C(=O)N[C@@H](CC(N)=O)C(=O)N[C@H]2C(=O)N[C@H]3C(=O)N[C@H](C(=O)N[C@H](C(=O)O)c4cc(O)cc(O)c4-c4cc3ccc4O)[C@H](O)c3ccc(c(Cl)c3)Oc3cc2cc(c3O[C@@H]2O[C@H](CO)[C@@H](O)[C@H](O)[C@H]2O[C@H]2C[C@](C)(N)[C@H](O)[C@H](C)O2)Oc2ccc(cc2Cl)[C@H]1O` [VANCOMYCIN] showed an MIC (Staphylococcus aureus [1]) of 1.6 µg/mL, an MIC (Staphylococcus aureus [2]) of 0.4 µg/mL (≈ 0.276 µM) and an ED50 (Staphylococcus aureus [3]) of 0.43 µg. For the same compound, the ED50 (Staphylococcus aureus [8]) was 0.25 µg, the MIC (Staphylococcus aureus [4]) was 0.4 µg/mL (≈ 0.276 µM) and the MIC (Staphylococcus aureus [5]) was 0.4 µg/mL (≈ 0.276 µM). It also gave an ED50 (Staphylococcus aureus [6]) of 0.53 µg, an MIC (Staphylococcus aureus [9]) of 0.4 µg/mL (≈ 0.276 µM) and an MIC (Staphylococcus aureus [7]) of 0.4 µg/mL (≈ 0.276 µM). The ED50 (Staphylococcus aureus [10]) was 0.45 µg.
